# Test results: ChEMBL document CHEMBL2331113, “Synthesis of cyclic pyranopterin monophosphate, a biosynthetic intermediate in the molybdenum cofactor pathway” (J Med Chem, 2013); call rule not given here
# Key:
# [1] = Prodrug conversion in Tris/HCl buffer assessed as Escherichia coli MPT synthase-mediated 2-amino-6-(3,4-dihydroxybut-1-ynyl)pteridin-4(3H)-one formation after 30 mins by HPLC analysis; format: ADME; conditions: 0.5 h
# [2] = Prodrug conversion in HEPES buffer assessed as Escherichia coli MPT synthase-mediated 2-amino-6-(3,4-dihydroxybut-1-ynyl)pteridin-4(3H)-one formation measured as activation of human apo-sulfite oxidase incubated for 30 mins prior to apo-sulfite oxidase addition measured after 30 mins by spectrophotometric analysis in presence of gephyrin; conditions: 0.5 h
# [3] = Half life of aerial oxidation of the compound at pH 3; format: physicochemical
Drug metabolism [1],Drug metabolism [2],half-life [3],Compound
Dose-dependent effect,Dose-dependent effect,,Br.Nc1nc2c(c(=O)[nH]1)N[C@@H]1[C@H](N2)O[C@@H]2COP(=O)(O)O[C@@H]2C1(O)O
Active,Active,10.6 h,Nc1nc2c(c(=O)[nH]1)N[C@@H]1[C@H](N2)O[C@@H]2COP(=O)(O)O[C@@H]2C1(O)O [FOSDENOPTERIN]
